In assay [1] the target is T1, human TRPV1 (Homo sapiens (Human), UniProt Q8NER1). The assay is described as follows: Acid Activation Assay (pH 5.0, intracellular Ca2+, FLIPR). The note with it: percentage of the maximal pH 5.0-induced response remaining; recombinant HEK293 hTRPV1 cells; maximum concentration tested 37.5 μM. It is filed as cell-based. An outline of the steps:
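Readout: peak [Ca2+]i fluorescence over baseline on FLIPR, expressed as percentage remaining of the maximal pH 5.0-evoked signal. Stable hTRPV1-HEK293 cells with Calcium-4 dye received compound (12 half-log concentrations, maximum 37.5 μM) 3 min before acidic pH 5.0 buffer.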

For assay [2], the target named is T1, human TRPV1. Nature of the assay: Capsaicin Activation Assay (intracellular Ca2+, FLIPR). It is filed as cell-based. The note with it: recombinant HEK293 cells expressing hTRPV1, 50 nM capsaicin. An outline of the steps: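 Ca2+ fluorescence was recorded by FLIPR every 1 to 5 seconds in HEK293 cells, clonally selected for stable human TRPV1 expression and plated one day ahead. Test compounds came as serial dilutions of 10 mM DMSO stocks.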

T1 sequence (Q8NER1 whole entry): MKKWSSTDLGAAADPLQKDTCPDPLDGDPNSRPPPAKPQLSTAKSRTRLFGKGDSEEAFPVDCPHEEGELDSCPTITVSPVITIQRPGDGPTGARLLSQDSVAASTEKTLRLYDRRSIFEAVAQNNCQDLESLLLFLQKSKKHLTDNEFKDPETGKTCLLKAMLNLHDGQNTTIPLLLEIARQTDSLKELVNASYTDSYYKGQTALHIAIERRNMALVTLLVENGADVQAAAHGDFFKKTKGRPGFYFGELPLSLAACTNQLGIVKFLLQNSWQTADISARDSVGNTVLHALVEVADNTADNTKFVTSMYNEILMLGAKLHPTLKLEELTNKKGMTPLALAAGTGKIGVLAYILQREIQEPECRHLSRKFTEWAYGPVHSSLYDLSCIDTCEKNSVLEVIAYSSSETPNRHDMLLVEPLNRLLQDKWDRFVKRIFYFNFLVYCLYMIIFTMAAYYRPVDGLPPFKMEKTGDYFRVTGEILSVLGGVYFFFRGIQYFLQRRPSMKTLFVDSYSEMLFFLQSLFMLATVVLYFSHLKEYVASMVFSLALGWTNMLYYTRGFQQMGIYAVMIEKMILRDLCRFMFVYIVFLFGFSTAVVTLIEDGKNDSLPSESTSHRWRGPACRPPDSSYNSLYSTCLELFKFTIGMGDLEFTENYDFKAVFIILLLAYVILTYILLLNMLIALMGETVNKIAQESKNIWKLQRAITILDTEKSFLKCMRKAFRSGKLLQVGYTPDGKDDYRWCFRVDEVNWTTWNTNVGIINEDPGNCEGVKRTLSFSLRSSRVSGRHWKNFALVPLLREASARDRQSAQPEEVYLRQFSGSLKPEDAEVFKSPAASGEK

A word on the IC50: it is the concentration at which inhibition is half-maximal. In the case of `CN1Cc2ccc(NC(=O)N[C@@H]3CC(CF)(CF)Oc4cc(F)ccc43)cc2NC1=O` [Example 209, 1-[(4R)-7-fluoro-2,2-bis(fluoromethyl)-3,4-dihydro-2H-chromen-4-yl]-3-(3-methyl-2-oxo-1,2,3,4-tetrahydroquinazolin-7-yl)urea], the “human TRPV1 H^+ (max % remain)” value at human TRPV1 [1] came to 57%. Further, the IC50 at human TRPV1 [2] was determined as 290 nM.
As for `CN1C(=O)NCc2c(NC(=O)N[C@@H]3CCOc4c3cccc4C(C)(C)C)cccc21` [Example 142, 1-[(4R)-8-tert-butyl-3,4-dihydro-2H-chromen-4-yl]-3-(1-methyl-2-oxo-1,2,3,4-tetrahydroquinazolin-5-yl)urea], at human TRPV1 [1], the “human TRPV1 H^+ (max % remain)” value is on record as 18%. Also, the IC50 on human TRPV1 [2] worked out at 110 nM.
As for `CCC1(CC)C[C@@H](NC(=O)Nc2ccc3c(c2)NC(=O)CO3)c2ccc(OC(F)(F)F)cc2O1` [Example 111, 1-[(4R)-2,2-diethyl-7-(trifluoromethoxy)-3,4-dihydro-2H-chromen-4-yl]-3-(3-oxo-3,4-dihydro-2H-1,4-benzoxazin-6-yl)urea], on human TRPV1 [1], the “human TRPV1 H^+ (max % remain)” value stood at 71%. Also, on human TRPV1 [2], the concentration for half-maximal inhibition (IC50) worked out at 190 nM.
As for `CN1C(=O)NCc2c(NC(=O)N[C@@H]3C[C@@](C)(CF)Oc4ccccc43)cccc21` [Example 164, 1-[(2S,4R)-2-(fluoromethyl)-2-methyl-3,4-dihydro-2H-chromen-4-yl]-3-(1-methyl-2-oxo-1,2,3,4-tetrahydroquinazolin-5-yl)urea], the “human TRPV1 H^+ (max % remain)” value on human TRPV1 [1] came out at 35%. Further, the IC50 at human TRPV1 [2] came out at 120 nM.
In the case of `CCC1(CC)C[C@@H](NC(=O)Nc2ccc3c(c2)NC(=O)CO3)c2cc(F)ccc2O1` [Example 109, 1-[(4R)-2,2-diethyl-6-fluoro-3,4-dihydro-2H-chromen-4-yl]-3-(3-oxo-3,4-dihydro-2H-1,4-benzoxazin-6-yl)urea], the “human TRPV1 H^+ (max % remain)” value at human TRPV1 [1] is reported as 92%. Besides, the concentration for half-maximal inhibition (IC50) at human TRPV1 [2] was 130 nM.
The like results for `O=C1COc2ccc(NC(=O)NCC3COc4ccc(F)cc4C3)cc2N1` (stereo not shown) [Example 133, 1-[(6-fluoro-3,4-dihydro-2H-chromen-3-yl)methyl]-3-(3-oxo-3,4-dihydro-2H-1,4-benzoxazin-6-yl)urea] were, in that order, 100% and 2500 nM.
Take `CC1(C)C[C@@H](NC(=O)Nc2ccc3c(c2)NC(=O)N(CCO)C3)c2ccc(Cl)c(F)c2O1` [Example 61, 1-[(4R)-7-chloro-8-fluoro-2,2-dimethyl-3,4-dihydro-2H-chromen-4-yl]-3-[3-(2-hydroxyethyl)-2-oxo-1,2,3,4-tetrahydroquinazolin-7-yl]urea]: the “human TRPV1 H^+ (max % remain)” value at human TRPV1 [1] is 2%. Moreover, the half-inhibitory concentration (IC50) at human TRPV1 [2] worked out at 1200 nM.
On to `CN1C(=O)CCc2ccc(NC(=O)N[C@@H]3C[C@](C)(C(F)F)Oc4ccccc43)cc21` [Example 293, 1-[(2R,4R)-2-(difluoromethyl)-2-methyl-3,4-dihydro-2H-chromen-4-yl]-3-(1-methyl-2-oxo-1,2,3,4-tetrahydroquinolin-7-yl)urea], for which the “human TRPV1 H^+ (max % remain)” value on human TRPV1 [1] was found to be 72%. Also, at human TRPV1 [2], the IC50 was found to be 270 nM.
In the case of `CCCC1(CCC)C[C@@H](NC(=O)Nc2ccc3c(c2)NC(=O)N(CCO)C3)c2cccc(F)c2O1` [Example 311, 1-[(4R)-8-fluoro-2,2-dipropyl-3,4-dihydro-2H-chromen-4-yl]-3-[3-(2-hydroxyethyl)-2-oxo-1,2,3,4-tetrahydroquinazolin-7-yl]urea], the “human TRPV1 H^+ (max % remain)” value at human TRPV1 [1] stood at 14%. For the same compound, the IC50 at human TRPV1 [2] was determined as 150 nM.
The corresponding values for `CCC1(CC)C[C@@H](NC(=O)Nc2ccc3c(c2)NC(=O)CO3)c2cccc(F)c2O1` [Example 101, 1-[(4R)-2,2-diethyl-8-fluoro-3,4-dihydro-2H-chromen-4-yl]-3-(3-oxo-3,4-dihydro-2H-1,4-benzoxazin-6-yl)urea] are 105% and 95 nM.
Regarding `CC1(C)C[C@@H](NC(=O)Nc2ccc3c(c2)NC(=O)CO3)c2cccc(F)c2O1` [Example 100, 1-[(4R)-8-fluoro-2,2-dimethyl-3,4-dihydro-2H-chromen-4-yl]-3-(3-oxo-3,4-dihydro-2H-1,4-benzoxazin-6-yl)urea], the “human TRPV1 H^+ (max % remain)” value on human TRPV1 [1] turned out to be 95%. Also, the concentration for half-maximal inhibition (IC50) on human TRPV1 [2] came out at 310 nM.
The like results for `CN1Cc2ccc(NC(=O)N[C@@H]3CC(C)(C)Oc4c3ccc(F)c4Cl)cc2NC1=O` [Example 172, 1-[(4R)-8-chloro-7-fluoro-2,2-dimethyl-3,4-dihydro-2H-chromen-4-yl]-3-(3-methyl-2-oxo-1,2,3,4-tetrahydroquinazolin-7-yl)urea] were, in that order, 51% and 210 nM.
As to “1-[(2R,4R)-7-chloro-2-(difluoromethyl)-2-methyl-3,4-dihydro-2H-chromen-4-yl]-3-(2-oxo-1,2,3,4-tetrahydroquinolin-7-yl)urea [Example 30]”, on human TRPV1 [1], the “human TRPV1 H^+ (max % remain)” value is listed as 31%. Moreover, on human TRPV1 [2], the 50% inhibitory concentration (IC50) worked out at 4 nM.
The like results for `COCC1(COC)C[C@@H](NC(=O)Nc2ccc3c(c2)NC(=O)CC3)c2cc(F)ccc2O1` [Example 237, 1-[(4R)-6-fluoro-2,2-bis(methoxymethyl)-3,4-dihydro-2H-chromen-4-yl]-3-(2-oxo-1,2,3,4-tetrahydroquinolin-7-yl)urea] were, in that order, 52% and 150 nM.
The like results for `CC1(C)C[C@@H](NC(=O)Nc2ccc3c(c2)NC(=O)CO3)c2ccc(C(F)(F)F)cc2O1` [Example 106, 1-[(4R)-2,2-dimethyl-7-(trifluoromethyl)-3,4-dihydro-2H-chromen-4-yl]-3-(3-oxo-3,4-dihydro-2H-1,4-benzoxazin-6-yl)urea] were, in that order, 98% and 94 nM.
As for `C[C@]1(C(F)F)C[C@@H](NC(=O)Nc2ccc3c(c2)NC(=O)N(CCO)C3)c2ccccc2O1` [Example 60, 1-[(2R,4R)-2-(difluoromethyl)-2-methyl-3,4-dihydro-2H-chromen-4-yl]-3-[3-(2-hydroxyethyl)-2-oxo-1,2,3,4-tetrahydroquinazolin-7-yl]urea], the “human TRPV1 H^+ (max % remain)” value at human TRPV1 [1] stood at 9%. Besides, the IC50 at human TRPV1 [2] was found to be 1300 nM.
The corresponding values for `Cn1c(=O)ccc2c(NC(=O)N[C@@H]3CCc4cc(F)ccc43)cccc21` [Example 83, 1-[(1R)-5-fluoro-2,3-dihydro-1H-inden-1-yl]-3-(1-methyl-2-oxo-1,2-dihydroquinolin-5-yl)urea] are 36% and 19 nM.
The like results for `O=C1CCc2ccc(NC(=S)N[C@@H]3CC(CF)(CF)Oc4cc(Cl)ccc43)cc2N1` [Example 252, 1-[(4R)-7-chloro-2,2-bis(fluoromethyl)-3,4-dihydro-2H-chromen-4-yl]-3-(2-oxo-1,2,3,4-tetrahydroquinolin-7-yl)thiourea] were, in that order, 48% and 13 nM.
The like results for `CN1Cc2ccc(NC(=O)N[C@@H]3CC(CF)(CF)Oc4cc(OC(F)(F)F)ccc43)cc2NC1=O` [Example 183, 1-[(4R)-2,2-bis(fluoromethyl)-7-(trifluoromethoxy)-3,4-dihydro-2H-chromen-4-yl]-3-(3-methyl-2-oxo-1,2,3,4-tetrahydroquinazolin-7-yl)urea] were, in that order, 42% and 120 nM.
As for `CN1C(=O)CCc2ccc(NC(=O)N[C@@H]3C[C@@](C)(C(F)F)Oc4ccccc43)cc21` [Example 292, 1-[(2S,4R)-2-(difluoromethyl)-2-methyl-3,4-dihydro-2H-chromen-4-yl]-3-(1-methyl-2-oxo-1,2,3,4-tetrahydroquinolin-7-yl)urea], the “human TRPV1 H^+ (max % remain)” value on human TRPV1 [1] is 68%. Moreover, on human TRPV1 [2], the IC50 worked out at 26 nM.
The like results for `CN1C(=O)NCc2c(NC(=O)N[C@@H]3CCc4cc(C(C)(C)C)ccc43)cccc21` [Example 141, 1-[(1R)-5-tert-butyl-2,3-dihydro-1H-inden-1-yl]-3-(1-methyl-2-oxo-1,2,3,4-tetrahydroquinazolin-5-yl)urea] were, in that order, 8% and 28 nM.
As to `CN1C(=O)NCc2c(NC(=O)NC3COc4cc(Cl)ccc4C3)cccc21` (stereo not shown) [Example 161, 1-(7-chloro-3,4-dihydro-2H-chromen-3-yl)-3-(1-methyl-2-oxo-1,2,3,4-tetrahydroquinazolin-5-yl)urea], on human TRPV1 [1], the “human TRPV1 H^+ (max % remain)” value was found to be 9%. Besides, the IC50 on human TRPV1 [2] was found to be 95 nM.
Take `CN1C(=O)NCc2c(NC(=O)N[C@@H]3CC4(CCC4)Oc4ccc(F)cc43)cccc21` [Example 154, 1-[(4R)-6-fluoro-3,4-dihydrospiro[chromene-2,1′-cyclobutan]-4-yl]-3-(1-methyl-2-oxo-1,2,3,4-tetrahydroquinazolin-5-yl)urea]: the “human TRPV1 H^+ (max % remain)” value on human TRPV1 [1] is 20%. In addition, at human TRPV1 [2], the IC50 worked out at 15 nM.
The corresponding values for `O=C1COc2c(cccc2NC(=O)N[C@@H]2CC(CF)(CF)Oc3cc(Cl)ccc32)N1` [Example 323, 1-[(4R)-7-chloro-2,2-bis(fluoromethyl)-3,4-dihydro-2H-chromen-4-yl]-3-(3-oxo-3,4-dihydro-2H-1,4-benzoxazin-8-yl)urea] are 0% and 4.5 nM.
Take `Cn1c(=O)ccc2c(NC(=O)N[C@@H]3C[C@](C)(C(F)(F)F)Oc4ccccc43)cccc21` [Example 90, 1-(1-methyl-2-oxo-1,2-dihydroquinolin-5-yl)-3-[(2R,4R)-2-methyl-2-(trifluoromethyl)-3,4-dihydro-2H-chromen-4-yl]urea]: the “human TRPV1 H^+ (max % remain)” value at human TRPV1 [1] stood at 45%. Moreover, the IC50 on human TRPV1 [2] was 11 nM.
The corresponding values for `CCCC1(CCC)C[C@@H](NC(=O)Nc2ccc3c(c2)NC(=O)CO3)c2cccc(F)c2O1` [Example 110, 1-[(4R)-8-fluoro-2,2-dipropyl-3,4-dihydro-2H-chromen-4-yl]-3-(3-oxo-3,4-dihydro-2H-1,4-benzoxazin-6-yl)urea] are 111% and 150 nM.

The values above are taken from US8969325B2, “TRPV1 antagonists” (AbbVie Inc., priority 2011, dated 2015).
